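48-hour exposure; five concentrations; linearly interpolated endpoints. Abbreviation: GI50, concentration required for 50% inhibition of growth.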 Calls of active or inactive are those of the source. Rule as the data show it: active = GI50 up to about 1.1 µM and inactive = higher.
How the values were obtained:
Assay in all cases: NCI anticancer screen, dose series, 48 h
RXF 393 = system: RXF 393
MDA-N = system: MDA-N
IGROV-1 = system: IGROV-1
Malme-3M = system: Malme-3M
MDA-MB-435 = system: MDA-MB-435
HT-29 = system: HT-29
MCF7 = system: MCF7
SNB-75 = system: SNB-75
SN12C = system: SN12C
SK-OV-3 = system: SK-OV-3
OVCAR-3 = system: OVCAR-3
NCI/ADR-RES = system: NCI/ADR-RES
HCC 2998 = system: HCC 2998
OVCAR-4 = system: OVCAR-4
SW-620 = system: SW-620
HCT-15 = system: HCT-15
ACHN = system: ACHN
SK-MEL-28 = system: SK-MEL-28
SNB-19 = system: SNB-19
SF-539 = system: SF-539

Row | Compound | GI50 (RXF 393) | GI50 (MDA-N) | GI50 (IGROV-1) | GI50 (Malme-3M) | GI50 (MDA-MB-435) | GI50 (HT-29) | GI50 (MCF7) | GI50 (SNB-75) | GI50 (SN12C) | GI50 (SK-OV-3) | GI50 (OVCAR-3) | GI50 (NCI/ADR-RES) | GI50 (HCC 2998) | GI50 (OVCAR-4) | GI50 (SW-620) | GI50 (HCT-15) [µM] | GI50 (ACHN) | GI50 (SK-MEL-28) | GI50 (SNB-19) | GI50 (SF-539)
1 | S=C1NCN2CCN(CC2)CNC(=S)C(=S)NCN2CCN(CC2)CNC1=S | 56 µM (inactive) | 67.8 µM (inactive) | 64.3 µM (inactive) | > 100 µM (inactive) | 39.8 µM (inactive) | 85.5 µM (inactive) | 54.5 µM (inactive) | > 100 µM (inactive) | 44.5 µM (inactive) | > 100 µM (inactive) | 22 µM (inactive) | 67.5 µM (inactive) | 78.5 µM (inactive) | > 100 µM (inactive) | 30.4 µM (inactive) | 31.3 | 72.1 µM (inactive) | > 100 µM (inactive) | 41.1 µM (inactive) | 
2 | Cc1cc(C)c(-n2c(-c3ccc(Br)cc3)cs/c2=N\N=C2C=C(C(C)(C)C)C(=O)C(C(C)(C)C)=C2)c(C)c1 | 21.7 µM (inactive) | > 100 µM (inactive) | > 63.7 µM (inactive) | > 100 µM (inactive) | > 100 µM (inactive) | > 100 µM (inactive) | > 100 µM (inactive) | 17.5 µM (inactive) | > 100 µM (inactive) | > 72.9 µM (inactive) | > 100 µM (inactive) | > 100 µM (inactive) | > 100 µM (inactive) | > 100 µM (inactive) | > 100 µM (inactive) | > 100 | > 100 µM (inactive) | > 100 µM (inactive) | 76.2 µM (inactive) | > 69.3 µM (inactive)
3 | Nc1nc(N)c2ncn(CC3CCC(CO)C3)c2n1 (stereo not given) | > 100 µM (inactive) | > 100 µM (inactive) |  |  | > 100 µM (inactive) |  | > 100 µM (inactive) | > 100 µM (inactive) | > 100 µM (inactive) | > 100 µM (inactive) | > 100 µM (inactive) | > 100 µM (inactive) | > 100 µM (inactive) | > 100 µM (inactive) | > 100 µM (inactive) | > 100 | > 100 µM (inactive) | > 100 µM (inactive) | > 100 µM (inactive) | > 100 µM (inactive)
4 | Nc1nc(Cl)c(N)c(NCC2(CO)CC(Cc3ccccc3)C2)n1 (stereo not given) | > 42.6 µM (inactive) | 33.3 µM (inactive) | > 78.5 µM (inactive) |  | 16.6 µM (inactive) | 70.6 µM (inactive) | 7.87 µM (inactive) | > 85.3 µM (inactive) | > 100 µM (inactive) | > 100 µM (inactive) | 26.3 µM (inactive) | 15.1 µM (inactive) | > 93.5 µM (inactive) | 48.1 µM (inactive) | > 72.8 µM (inactive) | > 79.3 | 97.9 µM (inactive) | > 100 µM (inactive) | > 66.4 µM (inactive) | > 100 µM (inactive)
5 | C/C(=N\Nc1nc2ccccc2s1)c1cnccn1 | 12.7 µM (inactive) | 11.4 µM (inactive) | 0.406 µM (active) | 0.505 µM (active) | 6.01 µM (inactive) | 0.175 µM (active) | 1.52 µM (inactive) | 2.8 µM (inactive) | 1.08 µM (active) | 2.08 µM (inactive) | 0.49 µM (active) | 1.74 µM (inactive) | 7.21 µM (inactive) | 16.7 µM (inactive) | 0.505 µM (active) | 0.625 | 0.397 µM (active) | 9.66 µM (inactive) | 3.67 µM (inactive) | 5.24 µM (inactive)
6 | O=C(OCCNC(=O)N1CC1)OCCNC(=O)N1CC1 | > 10 µM (inactive) | > 10 µM (inactive) | > 10 µM (inactive) | > 10 µM (inactive) | > 10 µM (inactive) | > 10 µM (inactive) | > 10 µM (inactive) | > 10 µM (inactive) | > 10 µM (inactive) | > 10 µM (inactive) | > 10 µM (inactive) | > 10 µM (inactive) | > 10 µM (inactive) | > 10 µM (inactive) | > 10 µM (inactive) | > 10 | > 10 µM (inactive) | > 10 µM (inactive) | > 10 µM (inactive) | > 10 µM (inactive)
7 | C[N+](C)(C)CC1CCCCCCCCCCC1=O (stereo not given) | > 100 µM (inactive) | > 100 µM (inactive) | > 100 µM (inactive) | > 100 µM (inactive) | > 100 µM (inactive) | > 100 µM (inactive) | > 100 µM (inactive) | > 100 µM (inactive) | > 100 µM (inactive) | > 100 µM (inactive) | > 100 µM (inactive) | > 100 µM (inactive) | > 100 µM (inactive) | > 100 µM (inactive) | > 100 µM (inactive) | > 100 | > 100 µM (inactive) | > 100 µM (inactive) | > 100 µM (inactive) | > 100 µM (inactive)

From ChEMBL document CHEMBL1201862, “PubChem BioAssay data set” (2004)
